In patent US6372431B1, “Mammalian toxicological response markers” (Incyte Genomics, Inc., priority 1999, dated 2002):
Where two headings read alike, the source gives them in different places.

Tests used:
[1] = system: SEQ ID NO:4; experiment: microarray gene expression in treated rat liver; format: in vivo; conditions: CLO-treated rat liver, 250 mg/kg bw i.p. single dose
Protocol: (§1) For each target preparation, frozen liver was homogenized and lysed in TRIZOL reagent (Life Technologies, Gaithersburg Md.) following the modifications for liver RNA isolation. Messenger RNA was isolated using an OLIGOTEX kit (QIAGEN) and labeled with either Cy3- or Cy5-labeled primers (Operon Technologies, Alameda Calif.) using the GEMBRIGHT labeling kit (Incyte Pharmaceuticals). […] Quantitative and differential expression pattern control cDNAs were added to each labeling reaction. Labeled cDNA was treated with 0.5 M sodium bicarbonate. (pH 9.2) for 20 min at 85 ° C. to degrade the RNA and purified using two successive CHROMA SPIN 30 gel filtration spin columns (Clontech, Palo Alto Calif.). Cy3-labeled control sample and Cy5-labeled experimental sample were combined and precipitated in glycogen, sodium acetate, and ethanol.
(§2) Hybridizations were carried out using the methods described by Shalon (supra).
(§3) The microscope used to detect the reporter-labeled hybridization complexes was equipped with an Innova 70 mixed gas 10 W laser (Coherent Lasers, Santa Clara Calif.) capable of generating spectral lines at 488 nm for excitation of Cy3, and 632 nm for excitation of Cy5. The excitation laser light was focused on the array using a 20×microscope objective (Nikon, Melville N.Y.). The slide containing the array was placed on a computer-controlled X-Y stage on the microscope and raster-scanned past the objective. The 1.8 cm×1.8 cm array used in the present example was scanned with a resolution of 20 micrometers.
(§4) In two separate scans, a mixed gas multiline laser excited the two fluorophores sequentially. Emitted light was split, based on wavelength, into two photomultiplier tube detectors (PMT R1477, Hamamatsu Photonics, San Jose Calif.) corresponding to the two fluorophores. Appropriate filters positioned between the array and the photomultiplier tubes were used to filter the signals. The emission maxima of the fluorophores used were 565 nm for Cy3 and 650 nm for Cy5. Each array was typically scanned twice, one scan per fluorophore using the appropriate filters at the laser source, although the apparatus was capable of recording the spectra from both fluorophores simultaneously.
(§5) When two probes from different sources (e.g., representing test and control cells), each labeled with a different fluorophore, are hybridized to a single array for the purpose of identifying genes that are differentially expressed, the calibration was done by labeling samples of the calibrating cDNA with the two fluorophores and adding identical amounts of each to the hybridization mixture.
(§6) A grid was superimposed over the fluorescence signal image such that the signal from each spot was centered in each element of the grid. The fluorescence signal within each element was then integrated to obtain a numerical value corresponding to the average intensity of the signal. The software used for signal analysis was the GEMTOOLS gene expression analysis program (Incyte Pharmaceuticals).

[2] = system: P450 3A2; experiment: microarray gene expression in treated rat liver; format: in vivo; conditions: clofibrate-treated rat liver, 250 mg/kg bw i.p. single dose
Protocol: as §1, §2, §3, §4, §5, §6

[3] = system: P450 4A; experiment: microarray gene expression in treated rat liver; format: in vivo; conditions: clofibrate-treated rat liver, 250 mg/kg bw i.p. single dose
Protocol: as §1, §2, §3, §4, §5, §6

[4] = system: P450 LA-omega 4A3; experiment: microarray gene expression in treated rat liver; format: in vivo; conditions: clofibrate-treated rat liver, 250 mg/kg bw i.p. single dose
Protocol: as §1, §2, §3, §4, §5, §6

[5] = system: SEQ ID NO:2; conditions: male, Sprague-Dawley, rat, in vivo, ip, 250 mg/kg
Protocol: as §1, §2, §3, §4, §5, §6

[6] = system: SEQ ID NO:5; conditions: male, Sprague-Dawley, rat, in vivo, ip, 250 mg/kg
Protocol: as §1, §2, §3, §4, §5, §6

[7] = system: SEQ ID NO:8; conditions: male, Sprague-Dawley, rat, in vivo, ip, 250 mg/kg
Protocol: as §1, §2, §3, §4, §5, §6

[8] = system: SEQ ID NO:3; conditions: male, Sprague-Dawley, rat, in vivo, ip, 250 mg/kg
Protocol: as §1, §2, §3, §4, §5, §6

- Gene expression (x-fold change) of SEQ ID NO: 4 ([1]; 12 hours): 2 x-fold change
- Gene expression (x-fold change) of SEQ ID NO: 4 ([1]; 24 hours): 0.36 x-fold change
- Gene expression (x-fold change) of SEQ ID NO: 4 ([1]; 3 days): 0.47 x-fold change
- Gene expression (x-fold change) of SEQ ID NO: 4 ([1]; 7 days): 0.26 x-fold change
- Gene expression (x-fold change) of SEQ ID NO: 4 ([1]; 28 days): 0.30 x-fold change
- Gene expression (x-fold change) of P450 3A2 ([2]; 12 hours): 0.14 x-fold change
- Gene expression (x-fold change) of P450 3A2 ([2]; 24 hours): 1.2 x-fold change
- Gene expression (x-fold change) of P450 3A2 ([2]; 3 days): 0.63 x-fold change
- Gene expression (x-fold change) of P450 3A2 ([2]; 7 days): 0.50 x-fold change
- Gene expression (x-fold change) of P450 3A2 ([2]; 28 days): 0.45 x-fold change
- Gene expression (x-fold change) of P450 4A ([3]; 12 hours): 7.0 x-fold change
- Gene expression (x-fold change) of P450 4A ([3]; 24 hours): 16.6 x-fold change
- Gene expression (x-fold change) of P450 4A ([3]; 3 days): 1.4 x-fold change
- Gene expression (x-fold change) of P450 4A ([3]; 7 days): 0.5 x-fold change
- Gene expression (x-fold change) of P450 4A ([3]; 28 days): 1.3 x-fold change
- Gene expression (x-fold change) of P450 LA-omega 4A3 ([4]; 12 hours): 14.8 x-fold change
- Gene expression (x-fold change) of P450 LA-omega 4A3 ([4]; 24 hours): 26.6 x-fold change
- Gene expression (x-fold change) of P450 LA-omega 4A3 ([4]; 3 days): 1.1 x-fold change
- Gene expression (x-fold change) of P450 LA-omega 4A3 ([4]; 7 days): 0.5 x-fold change
- Gene expression (x-fold change) of P450 LA-omega 4A3 ([4]; 28 days): 0.47 x-fold change
- Gene expression (x-fold change) of SEQ ID NO: 2 ([5]; 12 h): 2.6 x-fold change
- Gene expression (x-fold change) of SEQ ID NO: 2 ([5]; 24 h): 1.4 x-fold change
- Gene expression (x-fold change) of SEQ ID NO: 2 ([5]; 3 days): 0.5 x-fold change
- Gene expression (x-fold change) of SEQ ID NO: 2 ([5]; 7 days): 1.1 x-fold change
- Gene expression (x-fold change) of SEQ ID NO: 2 ([5]; 28 days): 1.2 x-fold change
- Gene expression (x-fold change) of SEQ ID NO: 5 ([6]; 12 h): 1.7 x-fold change
- Gene expression (x-fold change) of SEQ ID NO: 5 ([6]; 24 h): 2.9 x-fold change
- Gene expression (x-fold change) of SEQ ID NO: 5 ([6]; 3 days): 1.6 x-fold change
- Gene expression (x-fold change) of SEQ ID NO: 5 ([6]; 7 days): 1.5 x-fold change
- Gene expression (x-fold change) of SEQ ID NO: 5 ([6]; 28 days): 1.2 x-fold change
- Gene expression (x-fold change) of SEQ ID NO: 8 ([7]; 12 h): 2.6 x-fold change
- Gene expression (x-fold change) of SEQ ID NO: 8 ([7]; 24 h): 1.7 x-fold change
- Gene expression (x-fold change) of SEQ ID NO: 8 ([7]; 3 days): 1.3 x-fold change
- Gene expression (x-fold change) of SEQ ID NO: 8 ([7]; 7 days): 1.3 x-fold change
- Gene expression (x-fold change) of SEQ ID NO: 8 ([7]; 28 days): 1.4 x-fold change
- Gene expression (x-fold change) of SEQ ID NO: 3 ([8]; 12 h): 1.3 x-fold change
- Gene expression (x-fold change) of SEQ ID NO: 3 ([8]; 24 h): 2 x-fold change
- Gene expression (x-fold change) of SEQ ID NO: 3 ([8]; 3 days): 1.3 x-fold change
- Gene expression (x-fold change) of SEQ ID NO: 3 ([8]; 7 days): 1.5 x-fold change
- Gene expression (x-fold change) of SEQ ID NO: 3 ([8]; 28 days): 1.5 x-fold change
Structure (SMILES): CCOC(=O)C(C)(C)Oc1ccc(Cl)cc1 [clofibrate]
